Bounds are passed on as bounds.

Assay [1] concerns the target T1, Eukaryotic translation initiation factor 2-alpha kinase 3 (Homo sapiens, UniProt Q9NZJ5).
T1 sequence (Q9NZJ5 whole entry): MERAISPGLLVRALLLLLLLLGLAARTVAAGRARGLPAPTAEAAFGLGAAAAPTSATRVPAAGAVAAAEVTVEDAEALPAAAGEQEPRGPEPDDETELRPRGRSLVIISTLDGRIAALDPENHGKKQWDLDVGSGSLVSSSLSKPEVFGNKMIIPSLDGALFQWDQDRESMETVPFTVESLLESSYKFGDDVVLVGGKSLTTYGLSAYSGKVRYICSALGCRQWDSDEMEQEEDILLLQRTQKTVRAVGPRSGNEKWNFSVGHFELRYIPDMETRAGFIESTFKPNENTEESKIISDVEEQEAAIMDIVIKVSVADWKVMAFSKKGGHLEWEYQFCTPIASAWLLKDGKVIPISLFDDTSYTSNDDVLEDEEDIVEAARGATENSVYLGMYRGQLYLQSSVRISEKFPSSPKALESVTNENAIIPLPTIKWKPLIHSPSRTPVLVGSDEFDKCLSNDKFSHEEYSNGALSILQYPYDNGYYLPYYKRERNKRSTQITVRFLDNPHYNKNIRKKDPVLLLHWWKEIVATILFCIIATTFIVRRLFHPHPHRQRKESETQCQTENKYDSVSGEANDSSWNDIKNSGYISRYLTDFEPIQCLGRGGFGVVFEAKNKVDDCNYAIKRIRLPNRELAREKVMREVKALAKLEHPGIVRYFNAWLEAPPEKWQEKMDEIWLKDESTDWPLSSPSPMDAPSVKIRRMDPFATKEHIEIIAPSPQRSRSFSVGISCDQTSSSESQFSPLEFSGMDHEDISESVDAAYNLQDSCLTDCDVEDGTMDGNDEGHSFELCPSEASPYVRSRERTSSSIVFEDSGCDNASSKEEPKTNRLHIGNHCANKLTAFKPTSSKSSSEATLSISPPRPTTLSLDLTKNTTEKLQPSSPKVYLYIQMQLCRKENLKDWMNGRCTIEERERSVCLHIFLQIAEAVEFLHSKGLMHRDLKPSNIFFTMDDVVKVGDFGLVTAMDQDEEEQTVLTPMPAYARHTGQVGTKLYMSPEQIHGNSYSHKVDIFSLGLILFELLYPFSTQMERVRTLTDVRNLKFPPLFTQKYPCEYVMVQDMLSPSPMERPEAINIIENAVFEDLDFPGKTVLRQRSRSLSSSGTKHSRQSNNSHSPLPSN
The assay can be described thus: Inhibition of PERK (unknown origin).

Assay [2] concerns the target T2, Serine/threonine-protein kinase Nek10 (Homo sapiens) (UniProt Q6ZWH5).
T2 sequence (whole entry): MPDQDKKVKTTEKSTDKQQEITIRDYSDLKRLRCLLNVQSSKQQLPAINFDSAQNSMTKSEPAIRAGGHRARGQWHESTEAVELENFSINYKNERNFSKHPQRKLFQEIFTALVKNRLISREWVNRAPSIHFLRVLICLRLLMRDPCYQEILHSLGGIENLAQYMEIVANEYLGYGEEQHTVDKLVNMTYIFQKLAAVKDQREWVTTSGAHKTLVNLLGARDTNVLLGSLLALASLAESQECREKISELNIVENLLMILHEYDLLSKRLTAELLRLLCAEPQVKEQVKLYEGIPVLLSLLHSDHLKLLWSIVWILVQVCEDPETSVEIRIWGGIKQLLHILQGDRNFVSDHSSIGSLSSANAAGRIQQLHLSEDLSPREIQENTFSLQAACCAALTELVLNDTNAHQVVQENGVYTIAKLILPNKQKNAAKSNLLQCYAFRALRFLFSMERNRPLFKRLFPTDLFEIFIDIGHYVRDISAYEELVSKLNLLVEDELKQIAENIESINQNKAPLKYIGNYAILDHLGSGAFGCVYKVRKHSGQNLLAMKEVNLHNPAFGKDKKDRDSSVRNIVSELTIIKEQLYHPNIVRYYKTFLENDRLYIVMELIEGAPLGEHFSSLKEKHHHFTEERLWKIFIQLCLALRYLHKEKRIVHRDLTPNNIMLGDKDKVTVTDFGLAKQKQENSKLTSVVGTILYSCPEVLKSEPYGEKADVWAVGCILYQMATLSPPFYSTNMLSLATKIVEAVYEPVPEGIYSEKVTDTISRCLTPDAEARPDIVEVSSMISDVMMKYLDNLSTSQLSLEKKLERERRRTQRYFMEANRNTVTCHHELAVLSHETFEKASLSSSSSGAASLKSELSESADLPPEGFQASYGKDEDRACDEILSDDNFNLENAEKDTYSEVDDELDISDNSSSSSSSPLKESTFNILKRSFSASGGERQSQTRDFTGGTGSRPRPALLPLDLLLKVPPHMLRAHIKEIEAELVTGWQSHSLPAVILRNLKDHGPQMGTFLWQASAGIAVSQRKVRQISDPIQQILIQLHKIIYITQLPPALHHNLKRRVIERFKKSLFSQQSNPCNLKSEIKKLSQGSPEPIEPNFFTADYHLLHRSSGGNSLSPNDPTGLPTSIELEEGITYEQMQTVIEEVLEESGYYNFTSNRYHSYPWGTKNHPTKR
In words: Inhibition of NEK10 (unknown origin) at 10 uM relative to control.

Assay [3] has as its target T3, Serine/threonine-protein kinase Nek3 (Homo sapiens) (UniProt P51956).
T3 sequence (whole entry): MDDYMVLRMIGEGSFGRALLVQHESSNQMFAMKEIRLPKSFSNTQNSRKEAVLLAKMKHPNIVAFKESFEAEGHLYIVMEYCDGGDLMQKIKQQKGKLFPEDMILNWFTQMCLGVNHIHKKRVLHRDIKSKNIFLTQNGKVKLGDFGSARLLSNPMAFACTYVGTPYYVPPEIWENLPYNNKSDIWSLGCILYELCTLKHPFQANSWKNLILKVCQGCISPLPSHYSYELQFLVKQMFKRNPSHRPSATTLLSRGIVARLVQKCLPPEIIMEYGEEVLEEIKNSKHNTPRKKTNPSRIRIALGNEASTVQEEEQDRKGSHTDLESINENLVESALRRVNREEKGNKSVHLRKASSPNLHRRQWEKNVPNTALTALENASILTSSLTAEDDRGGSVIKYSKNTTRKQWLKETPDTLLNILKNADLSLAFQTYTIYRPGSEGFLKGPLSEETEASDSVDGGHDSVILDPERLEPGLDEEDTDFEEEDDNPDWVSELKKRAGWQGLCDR
The assay can be described thus: Inhibition of NEK3 (unknown origin) at 10 uM relative to control.

The target in assay [4] is Serine/threonine-protein kinase Nek4 (Homo sapiens) (UniProt P51957). The assay can be described thus: Inhibition of NEK4 (unknown origin) at 10 uM relative to control.
Assay [5] concerns the target Mitogen-activated protein kinase 8 (Homo sapiens, UniProt P45983). In words: Inhibition of JNK1 (unknown origin).
The target in assay [6] is Serine/threonine-protein kinase Nek2 (Homo sapiens, UniProt P51955). The assay can be described thus: Inhibition of NEK2 (unknown origin) assessed as dissociation constant.
Assay [7] addresses Serine/threonine-protein kinase Nek5 (Homo sapiens, UniProt Q6P3R8). In words: Inhibition of NEK5 (unknown origin) assessed as dissociation constant.

Serine/threonine-protein kinase Nek4 (Homo sapiens), sequence (P51957 whole entry, looked up): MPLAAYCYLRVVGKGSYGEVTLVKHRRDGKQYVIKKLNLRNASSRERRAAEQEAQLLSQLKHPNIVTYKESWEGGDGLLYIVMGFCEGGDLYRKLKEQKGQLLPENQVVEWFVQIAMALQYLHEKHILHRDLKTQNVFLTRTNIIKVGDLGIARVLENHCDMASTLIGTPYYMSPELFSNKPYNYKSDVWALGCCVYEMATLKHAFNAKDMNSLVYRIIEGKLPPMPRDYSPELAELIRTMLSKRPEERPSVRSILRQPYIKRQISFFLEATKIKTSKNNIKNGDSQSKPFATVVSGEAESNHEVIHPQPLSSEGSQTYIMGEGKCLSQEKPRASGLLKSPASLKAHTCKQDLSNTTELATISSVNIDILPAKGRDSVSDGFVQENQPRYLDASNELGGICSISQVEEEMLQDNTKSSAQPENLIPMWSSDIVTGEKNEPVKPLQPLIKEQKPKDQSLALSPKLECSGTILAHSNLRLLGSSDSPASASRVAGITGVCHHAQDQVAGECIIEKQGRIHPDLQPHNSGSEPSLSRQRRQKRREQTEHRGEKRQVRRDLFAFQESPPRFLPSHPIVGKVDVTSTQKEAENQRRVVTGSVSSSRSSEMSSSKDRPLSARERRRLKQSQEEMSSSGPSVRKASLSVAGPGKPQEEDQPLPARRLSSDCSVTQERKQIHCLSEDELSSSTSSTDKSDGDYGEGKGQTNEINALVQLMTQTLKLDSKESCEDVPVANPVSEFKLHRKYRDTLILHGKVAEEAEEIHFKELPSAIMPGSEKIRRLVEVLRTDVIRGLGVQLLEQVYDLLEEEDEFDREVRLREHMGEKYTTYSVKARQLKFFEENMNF
Serine/threonine-protein kinase Nek2, sequence (P51955 whole entry): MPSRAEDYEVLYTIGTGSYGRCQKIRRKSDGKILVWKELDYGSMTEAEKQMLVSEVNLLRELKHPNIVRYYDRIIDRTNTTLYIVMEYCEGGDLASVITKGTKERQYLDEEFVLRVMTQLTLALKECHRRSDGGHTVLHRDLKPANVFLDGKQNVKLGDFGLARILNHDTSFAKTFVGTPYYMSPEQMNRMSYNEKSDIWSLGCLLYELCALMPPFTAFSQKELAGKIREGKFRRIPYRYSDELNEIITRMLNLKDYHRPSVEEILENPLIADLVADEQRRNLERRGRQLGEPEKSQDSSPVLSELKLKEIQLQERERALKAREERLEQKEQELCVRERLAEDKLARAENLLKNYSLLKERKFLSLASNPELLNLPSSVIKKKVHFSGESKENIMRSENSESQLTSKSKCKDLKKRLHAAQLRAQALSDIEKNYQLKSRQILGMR
Serine/threonine-protein kinase Nek5, sequence (Q6P3R8 whole entry): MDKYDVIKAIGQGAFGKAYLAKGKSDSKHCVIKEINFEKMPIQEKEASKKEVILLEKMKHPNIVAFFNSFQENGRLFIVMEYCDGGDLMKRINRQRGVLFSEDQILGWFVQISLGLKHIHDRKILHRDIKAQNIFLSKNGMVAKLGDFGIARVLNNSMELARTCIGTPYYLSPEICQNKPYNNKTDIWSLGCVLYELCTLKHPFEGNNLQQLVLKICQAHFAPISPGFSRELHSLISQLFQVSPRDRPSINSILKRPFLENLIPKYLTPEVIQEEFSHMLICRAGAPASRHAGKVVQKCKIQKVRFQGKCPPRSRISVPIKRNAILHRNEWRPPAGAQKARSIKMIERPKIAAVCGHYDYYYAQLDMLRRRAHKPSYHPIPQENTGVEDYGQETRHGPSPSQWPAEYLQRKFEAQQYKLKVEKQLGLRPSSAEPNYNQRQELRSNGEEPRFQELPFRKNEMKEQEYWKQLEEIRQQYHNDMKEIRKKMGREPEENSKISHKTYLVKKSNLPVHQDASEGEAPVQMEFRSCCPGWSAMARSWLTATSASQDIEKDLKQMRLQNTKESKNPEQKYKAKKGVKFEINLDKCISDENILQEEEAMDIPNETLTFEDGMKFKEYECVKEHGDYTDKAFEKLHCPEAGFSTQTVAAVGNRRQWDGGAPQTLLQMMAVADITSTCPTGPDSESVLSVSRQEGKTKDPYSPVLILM
Mitogen-activated protein kinase 8, sequence (P45983 whole entry): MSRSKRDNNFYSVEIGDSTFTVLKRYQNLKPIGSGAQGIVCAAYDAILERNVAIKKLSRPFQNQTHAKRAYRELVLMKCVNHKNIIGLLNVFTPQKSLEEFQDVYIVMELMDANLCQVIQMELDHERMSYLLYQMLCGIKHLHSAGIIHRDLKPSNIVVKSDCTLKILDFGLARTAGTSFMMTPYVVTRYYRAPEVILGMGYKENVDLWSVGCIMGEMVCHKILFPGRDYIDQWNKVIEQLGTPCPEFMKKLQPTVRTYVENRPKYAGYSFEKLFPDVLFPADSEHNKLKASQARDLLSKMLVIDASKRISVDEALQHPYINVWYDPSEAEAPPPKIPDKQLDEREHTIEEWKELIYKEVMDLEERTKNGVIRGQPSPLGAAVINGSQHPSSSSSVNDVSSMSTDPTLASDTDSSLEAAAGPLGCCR

Usually IC50 stands for the point on the concentration scale where inhibition reaches its midpoint. In assay [1], `Cc1ccc(CC(=O)N2CCc3cc(-c4cn(C)c5ncnc(N)c45)ccc32)cc1` registered an IC50 of 17 nM. `Nc1ncc(-c2cn[nH]c2)c2scc(-c3ccc4c(c3)CCN4C(=O)Cc3ccccc3)c12` registered an IC50 in assay [1] of less than 15 nM. For `O=C1NC(=O)/C(=C/c2ccc3nccc(-c4ccncc4)c3c2)S1`, the % control in assay [2] came to 0%; in assay [3], 77%; in assay [4], 96%.

`CN(C)C/C=C/C(=O)Nc1cccc(C(=O)Nc2ccc(Nc3nccc(-c4cccnc4)n3)cc2)c1` yielded an IC50 in assay [5] of 41 nM. Also, the % control was determined as 6.8% in assay [3] and 83% in assay [4]. Usually Kd stands for the concentration at which binding is half-saturated. For the compound `COc1cccc(C2=C(Nc3ccc(Cl)c(C(=O)O)c3)C(=O)NC2=O)c1`, the Kd in assay [6] is 460 nM. As for `COc1cc(Nc2ncc3c(C)nc(-c4cc5ccccc5[nH]4)n3n2)cc(OC)c1OC`, the Kd in assay [7] was found to be 730 nM. In the case of `Cc1cc(NC(=O)c2cccc(NC(=O)/C=C/CN(C)C)c2)ccc1Nc1nccc(-c2cccnc2)n1`, the % control in assay [3] was found to be 73%; in assay [4], 79%. `CN(C)C/C=C/C(=O)Nc1cccc(C(=O)Nc2ccc(Nc3nccc(-c4c(-c5ccccc5)nn5ccccc45)n3)cc2)c1`: the % control worked out at 99% in assay [3] and 100% in assay [4]. For `Nc1nccc2scc(-c3ccc4c(c3)CCN4C(=O)Cc3ccccc3)c12`, in assay [1], the IC50 is less than 15 nM.

Regarding `Cc1ccc(NC(=O)c2ccc(NC(=O)/C=C/CN(C)C)cc2)cc1Nc1nccc(-c2cccnc2)n1`, the % control is 99% in assay [3] and 100% in assay [4].

In turn, `Nc1nccc2scc(-c3ccc4c(c3)CCN4C(=O)Cc3cc(F)ccc3F)c12` registered an IC50 in assay [1] of less than 15 nM. Consider `Fc1cc(-c2cc[nH]/c(=N/c3ccc(-n4cnc(N5CCOCC5)n4)cc3)n2)cc(N2CCOCC2)c1`, for which the figures for the % control in assay [3] and in assay [4] were 0.8% and 100%, respectively.

Regarding `CN(C)C/C=C/C(=O)Nc1ccc(C(=O)Nc2cccc(Nc3nccc(-c4cccnc4)n3)c2)cc1`, the % control was 17% in assay [3] and 100% in assay [4]. `CN(C)C/C=C/C(=O)Nc1cccc(C(=O)Nc2ccc(Nc3nccc(/C(C#N)=C4\Nc5ccccc5S4)n3)cc2)c1`: the % control in assay [3] and in assay [4] was 100% each time. The compound `Cn1cc(-c2cnc(N)c3c(-c4ccc5c(c4)CCN5C(=O)Cc4ccccc4)csc23)cn1` had an IC50 in assay [1] of less than 15 nM.

The values above are taken from ChEMBL document CHEMBL5252509, “In depth analysis of kinase cross screening data to identify chemical starting points for inhibition of the Nek family of kinases” (Medchemcomm, 2018).
